Assay results taken from patent US11000033B2, “Ketone or oxime compound, and herbicide” (NISSAN CHEMICAL CORPORATION, priority 2014, dated 2021).

Columns and labels:
Type in all cases: in vivo
[1] = tested on: Echinochloa oryzacola Vasing.; test: Test Example 2: herbicidal activity, application during weed generation in submerged conditions (symbol A); conditions: Table 23; application herbicide amount 320 g/ha; grade 0-5 by criteria of Test Example 1
Procedure, shortened: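 Seeds sown in flooded alluvial soil (4 cm water) were grown in a 25-30° C greenhouse. At the one- to two-leaf stage, diluted emulsion of compound was applied to the water surface at a predetermined rate. Effect was scored 3 weeks later.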

[2] = tested on: directly sowed rice plant; test: Test Example 3: effect on crop by foliage application, Wagner pot (symbol b); conditions: application herbicide amount 320 g/ha
Procedure, shortened: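 Alluvial soil in a 1/10000-are Wagner pot was flooded to a water depth of 0.1–0.5 cm. Echinochloa crus-galli var. crus-galli, Leptochloa chinensis, Cyperus difformis and rice were sown into it and grown in a greenhouse at 25–30 °C.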

Digitaria ciliaris = test: Test Example 4: herbicidal effect by soil treatment (symbol F); conditions: application herbicide amount 320 g/ha
Procedure, shortened: (§1)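 Seeds were sown in sterilized diluvial soil, covered with about 1.5 cm of soil, and the soil surface was sprayed with a water-diluted emulsion of the compound at a predetermined rate. Plants grew in a greenhouse at 25° C. to 30° C.; effects were scored visually 3 weeks after application.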

Alopecurus myosuroides [3] = test: Test Example 4: herbicidal effect by soil treatment (symbol J); conditions: application herbicide amount 320 g/ha
Procedure, shortened: as §1

Lolium multiflorum Lam. [4] = test: Test Example 4: herbicidal effect by soil treatment (symbol K); conditions: application herbicide amount 320 g/ha
Procedure, shortened: as §1

Stellaria media = test: Test Example 4: herbicidal effect by soil treatment (symbol P); conditions: application herbicide amount 320 g/ha
Procedure, shortened: as §1

corn = test: Test Example 4: effect on crop by soil treatment (symbol c); conditions: application herbicide amount 320 g/ha
Procedure, shortened: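 Soil-treatment setup: crop and weed seeds were spot-sown into sterilized diluvial soil, then buried beneath approximately 1.5 cm of it, and the boxes were housed in a 25–30° C. greenhouse.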

rice = test: Test Example 4: effect on crop by soil treatment (symbol b); conditions: application herbicide amount 320 g/ha
Procedure, shortened: (§2)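 Plants grew in a 25° C. to 30° C. greenhouse after spot-sowing of seeds, including beet, rapeseed, wheat and rice, into sterilized diluvial soil under roughly 1.5 cm of cover soil.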

wheat [5] = test: Test Example 4: effect on crop by soil treatment (symbol e); conditions: application herbicide amount 320 g/ha
Procedure, shortened: as §2

beet = test: Test Example 4: effect on crop by soil treatment (symbol f); conditions: application herbicide amount 320 g/ha
Procedure, shortened: as §2

rapeseed = test: Test Example 4: effect on crop by soil treatment (symbol g); conditions: application herbicide amount 320 g/ha
Procedure, shortened: as §2

Alopecurus myosuroides [6] = test: Test Example 5: herbicidal effect by foliage application, plastic box (symbol J); conditions: 320 g/ha, 3 weeks after application
Procedure, shortened: (§3)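 Greenhouse foliar test: seedlings at 14 days, grown 25° C. to 30° C. in sterilized diluvial soil; compound applied as an aqueous dilution of an emulsion; response read 3 weeks after spraying.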

Lolium multiflorum Lam. [7] = test: Test Example 5: herbicidal effect by foliage application, plastic box (symbol K); conditions: 320 g/ha, 3 weeks after application
Procedure, shortened: as §3

rice plant = test: Test Example 5: effect on crop by foliage application, plastic box (symbol b); conditions: 320 g/ha, 3 weeks after application
Procedure, shortened: (§4)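 Crop and weed seeds sown in spots in sterilized diluvial soil in plastic boxes and covered with about 1.5 cm soil. Plants raised in a greenhouse at 25° C. to 30° C. for foliar application.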

wheat [8] = test: Test Example 5: effect on crop by foliage application, plastic box (symbol e); conditions: 320 g/ha, 3 weeks after application
Procedure, shortened: as §4

| Structure (SMILES) | Herbicidal effect grade, A: Echinochloa oryzacola Vasing. [1] | effect on crop b (directly sowed rice plant), grade 0-5 [2] | Herbicidal effect grade, F: Digitaria ciliaris (Digitaria ciliaris) | Herbicidal effect grade, J: Alopecurus myosuroides (Alopecurus myosuroides [3]) | Herbicidal effect grade, K: Lolium multiflorum Lam. (Lolium multiflorum Lam. [4]) | Herbicidal effect grade, P: Stellaria media (Stellaria media) | Effect on crop grade, c: corn (corn) | Effect on crop grade, b: directly sowed rice plant (rice) | Effect on crop grade, e: wheat (wheat [5]) | Effect on crop grade, f: beet (beet) | Effect on crop grade, g: rapeseed (rapeseed) | J: Alopecurus myosuroides, herbicidal effect (criteria of Test Example 1) (Alopecurus myosuroides [6]) | K: Lolium multiflorum Lam., herbicidal effect (criteria of Test Example 1) (Lolium multiflorum Lam. [7]) | b: directly sowed rice plant, effect on crop (criteria of Test Example 1) (rice plant) | e: wheat, effect on crop (criteria of Test Example 1) (wheat [8]) | F: Digitaria ciliaris, herbicidal effect grade (Digitaria ciliaris) | J: Alopecurus myosuroides, herbicidal effect grade (Alopecurus myosuroides [3]) | K: Lolium multiflorum Lam., herbicidal effect grade (Lolium multiflorum Lam. [4]) | P: Stellaria media, herbicidal effect grade (Stellaria media) | c: corn, effect on crop grade (corn) | also measured |
| --- | --- | --- | --- | --- | --- | --- | --- | --- | --- | --- | --- | --- | --- | --- | --- | --- | --- | --- | --- | --- | --- |
| CC(=O)CC1CC(O)=C(c2c(C)cc(OCC(F)(F)F)cc2C)C1=O (stereo not drawn) [7-015] | 5 (Herbicidal ratio of 90% or more (almost completely withered)) | 5 (Herbicidal ratio of 90% or more (almost completely withered)) | 5 (Herbicidal ratio of 90% or more (almost completely withered)) | 5 (Herbicidal ratio of 90% or more (almost completely withered)) | 5 (Herbicidal ratio of 90% or more (almost completely withered)) | 0 (Herbicidal ratio of 5% or lower (almost no effect)) | 5 (Herbicidal ratio of 90% or more (almost completely withered)) | 5 (Herbicidal ratio of 90% or more (almost completely withered)) | 4 (Herbicidal ratio of 70% or higher and lower than 90%) | 0 (Herbicidal ratio of 5% or lower (almost no effect)) | 2 (Herbicidal ratio of 20% or higher and lower than 40%) | 5 (Herbicidal ratio of 90% or more (almost completely withered)) | 5 (Herbicidal ratio of 90% or more (almost completely withered)) | 5 (Herbicidal ratio of 90% or more (almost completely withered)) | 5 (Herbicidal ratio of 90% or more (almost completely withered)) | – | – | – | – | – | – |
| CON=C(C)CC1CC(OC(=O)COc2ccccc2)=C(c2c(C)cc(-c3ccccc3)cc2OC)C1=O (stereo not drawn) [6-100] | 5 (Herbicidal ratio of 90% or more (almost completely withered)) | 5 (Herbicidal ratio of 90% or more (almost completely withered)) | 5 (Herbicidal ratio of 90% or more (almost completely withered)) | 5 (Herbicidal ratio of 90% or more (almost completely withered)) | 5 (Herbicidal ratio of 90% or more (almost completely withered)) | 4 (Herbicidal ratio of 70% or higher and lower than 90%) | 4 (Herbicidal ratio of 70% or higher and lower than 90%) | 5 (Herbicidal ratio of 90% or more (almost completely withered)) | 3 (Herbicidal ratio of 40% or higher and lower than 70%) | 0 (Herbicidal ratio of 5% or lower (almost no effect)) | 5 (Herbicidal ratio of 90% or more (almost completely withered)) | 5 (Herbicidal ratio of 90% or more (almost completely withered)) | 5 (Herbicidal ratio of 90% or more (almost completely withered)) | 5 (Herbicidal ratio of 90% or more (almost completely withered)) | 5 (Herbicidal ratio of 90% or more (almost completely withered)) | – | – | – | – | – | – |
| CON=C(C)CC1CC(O)=C(c2c(C)cc(C3CC3)cc2C)C1=O (stereo not drawn) [6-050] | 3 (Herbicidal ratio of 40% or higher and lower than 70%) | 5 (Herbicidal ratio of 90% or more (almost completely withered)) | – | – | – | – | – | – | – | – | – | – | – | – | – | 5 (Herbicidal ratio of 90% or more (almost completely withered)) | 4 (Herbicidal ratio of 70% or higher and lower than 90%) | 5 (Herbicidal ratio of 90% or more (almost completely withered)) | 3 (Herbicidal ratio of 40% or higher and lower than 70%) | 1 (Herbicidal ratio of 5% or higher and lower than 20%) | b: directly sowed rice plant, effect on crop grade (rice): 5 (Herbicidal ratio of 90% or more (almost completely withered)); e: wheat, effect on crop grade (wheat [5]): 0 (Herbicidal ratio of 5% or lower (almost no effect)); f: beet, effect on crop grade (beet): 0 (Herbicidal ratio of 5% or lower (almost no effect)); g: rapeseed, effect on crop grade (rapeseed): 2 (Herbicidal ratio of 20% or higher and lower than 40%); J: Alopecurus myosuroides, herbicidal effect grade (Alopecurus myosuroides [6]): 5 (Herbicidal ratio of 90% or more (almost completely withered)); K: Lolium multiflorum Lam., herbicidal effect grade (Lolium multiflorum Lam. [7]): 5 (Herbicidal ratio of 90% or more (almost completely withered)); b: directly sowed rice plant, effect on crop grade (rice plant): 5 (Herbicidal ratio of 90% or more (almost completely withered)); e: wheat, effect on crop grade (wheat [8]): 0 (Herbicidal ratio of 5% or lower (almost no effect)) |
| CON=C(C)CC1CC(O)=C(c2c(F)cc(C)cc2OC)C1=O (stereo not drawn) [6-108] | 4 (Herbicidal ratio of 70% or higher and lower than 90%) | 5 (Herbicidal ratio of 90% or more (almost completely withered)) | 5 (Herbicidal ratio of 90% or more (almost completely withered)) | 3 (Herbicidal ratio of 40% or higher and lower than 70%) | 5 (Herbicidal ratio of 90% or more (almost completely withered)) | 3 (Herbicidal ratio of 40% or higher and lower than 70%) | 1 (Herbicidal ratio of 5% or higher and lower than 20%) | 5 (Herbicidal ratio of 90% or more (almost completely withered)) | 3 (Herbicidal ratio of 40% or higher and lower than 70%) | 0 (Herbicidal ratio of 5% or lower (almost no effect)) | 4 (Herbicidal ratio of 70% or higher and lower than 90%) | 5 (Herbicidal ratio of 90% or more (almost completely withered)) | 5 (Herbicidal ratio of 90% or more (almost completely withered)) | 5 (Herbicidal ratio of 90% or more (almost completely withered)) | 3 (Herbicidal ratio of 40% or higher and lower than 70%) | – | – | – | – | – | – |
| CON=C(C)CC1CC(OC(=O)N2CCOCC2)=C(c2c(C)cc(-c3ccc(Cl)cc3)cc2C)C1=O (mixture of isomers) [6-062] | 5 (Herbicidal ratio of 90% or more (almost completely withered)) | 5 (Herbicidal ratio of 90% or more (almost completely withered)) | – | – | – | – | – | – | – | – | – | 5 (Herbicidal ratio of 90% or more (almost completely withered)) | 4 (Herbicidal ratio of 70% or higher and lower than 90%) | 5 (Herbicidal ratio of 90% or more (almost completely withered)) | 5 (Herbicidal ratio of 90% or more (almost completely withered)) | 3 (Herbicidal ratio of 40% or higher and lower than 70%) | 4 (Herbicidal ratio of 70% or higher and lower than 90%) | 0 (Herbicidal ratio of 5% or lower (almost no effect)) | 3 (Herbicidal ratio of 40% or higher and lower than 70%) | 0 (Herbicidal ratio of 5% or lower (almost no effect)) | b: directly sowed rice plant, effect on crop grade (rice): 0 (Herbicidal ratio of 5% or lower (almost no effect)); e: wheat, effect on crop grade (wheat [5]): 0 (Herbicidal ratio of 5% or lower (almost no effect)); f: beet, effect on crop grade (beet): 0 (Herbicidal ratio of 5% or lower (almost no effect)); g: rapeseed, effect on crop grade (rapeseed): 0 (Herbicidal ratio of 5% or lower (almost no effect)) |
